According to the NIST ThermoML archive (doi:10.1016/j.tca.2015.02.014):

Experiment: mn = molality of the nth substance listed, in mol/kg
Conditions: 100 kPa, Liquid; for viscosity: Capillary tube (Ostwald / Ubbelohde) method; for speed of sound: Frequency=3 MHz, Sing-around technique in a fixed-path interferometer; for mass density: Vibrating tube method

C[C@H](CCC(=O)[O-])[C@H]1CC[C@H]2[C@@H]3[C@H](O)C[C@@H]4C[C@H](O)CC[C@]4(C)[C@H]3C[C@H](O)[C@]12C.[Na+] [sodium cholate] + O
Conditions	mass density [kg/m3]	speed of sound [m/s]	viscosity [mPa·s]
293.15 K, m1 = 0.001	998.33	1483	1.003
293.15 K, m1 = 0.002	998.422	1483.3	1.004
293.15 K, m1 = 0.003	998.533	1483.6	1.005
293.15 K, m1 = 0.004	998.618	1483.8	1.007
293.15 K, m1 = 0.006	998.805	1484.4	1.011
293.15 K, m1 = 0.008	999.003	1485	1.016
293.15 K, m1 = 0.01	999.241	1485.8	1.021
293.15 K, m1 = 0.014	999.685	1486.9	1.033
293.15 K, m1 = 0.018	1000.14	1487.9	1.041
293.15 K, m1 = 0.022	1000.59	1488.8	1.048
293.15 K, m1 = 0.026	1001	1489.7	1.056
293.15 K, m1 = 0.03	1001.44	1490.2	1.063
298.15 K, m1 = 0.001	997.158	1497	0.8906
298.15 K, m1 = 0.002	997.267	1497.3	0.8925
298.15 K, m1 = 0.003	997.369	1497.6	0.8939
298.15 K, m1 = 0.004	997.455	1497.9	0.8955
298.15 K, m1 = 0.006	997.635	1498.4	0.8987
298.15 K, m1 = 0.008	997.835	1499.1	0.902
298.15 K, m1 = 0.01	998.035	1499.7	0.9055
298.15 K, m1 = 0.014	998.454	1500.8	0.9168
298.15 K, m1 = 0.018	998.905	1501.7	0.9239
298.15 K, m1 = 0.022	999.354	1502.6	0.9315
298.15 K, m1 = 0.026	999.746	1503.4	0.9373
298.15 K, m1 = 0.03	1000.14	1504	0.9429
303.15 K, m1 = 0.001	995.785	1509.5	0.798
303.15 K, m1 = 0.002	995.901	1509.8	0.7991
303.15 K, m1 = 0.003	996.001	1510	0.7999
303.15 K, m1 = 0.004	996.102	1510.2	0.8022
303.15 K, m1 = 0.006	996.301	1510.7	0.8047
303.15 K, m1 = 0.008	996.513	1511.3	0.8075
303.15 K, m1 = 0.01	996.724	1511.8	0.8105
303.15 K, m1 = 0.014	997.167	1512.8	0.8215
303.15 K, m1 = 0.018	997.524	1513.8	0.8281
303.15 K, m1 = 0.022	997.945	1514.6	0.8321
303.15 K, m1 = 0.026	998.31	1515.4	0.838
303.15 K, m1 = 0.03	998.815	1516.1	0.8429
308.15 K, m1 = 0.001	994.145	1520.2	0.7202
308.15 K, m1 = 0.002	994.255	1520.5	0.7212
308.15 K, m1 = 0.003	994.348	1520.7	0.7225
308.15 K, m1 = 0.004	994.455	1520.9	0.7241
308.15 K, m1 = 0.006	994.7	1521.4	0.7265
308.15 K, m1 = 0.008	994.885	1522	0.7295
308.15 K, m1 = 0.01	995.101	1522.4	0.7323
308.15 K, m1 = 0.014	995.521	1523.4	0.7415
308.15 K, m1 = 0.018	995.957	1524.2	0.7461
308.15 K, m1 = 0.022	996.357	1525	0.7509
308.15 K, m1 = 0.026	996.744	1525.8	0.7561
308.15 K, m1 = 0.03	997.176	1526.4	0.7619
313.15 K, m1 = 0.001	992.351	1529.3	0.6535
313.15 K, m1 = 0.002	992.449	1529.6	0.6544
313.15 K, m1 = 0.003	992.547	1529.8	0.6556
313.15 K, m1 = 0.004	992.655	1530	0.6571
313.15 K, m1 = 0.006	992.873	1530.4	0.6595
313.15 K, m1 = 0.008	993.087	1530.9	0.662
313.15 K, m1 = 0.01	993.304	1531.3	0.6648
313.15 K, m1 = 0.014	993.711	1532.3	0.6722
313.15 K, m1 = 0.018	994.126	1533.1	0.6772
313.15 K, m1 = 0.022	994.505	1533.9	0.6813
313.15 K, m1 = 0.026	994.935	1534.6	0.6865
313.15 K, m1 = 0.03	995.354	1535.2	0.6918
318.15 K, m1 = 0.001	990.351	1536.9	0.5973
318.15 K, m1 = 0.002	990.445	1537.2	0.5985
318.15 K, m1 = 0.003	990.539	1537.3	0.5997
318.15 K, m1 = 0.004	990.629	1537.5	0.6013
318.15 K, m1 = 0.006	990.864	1537.9	0.6035
318.15 K, m1 = 0.008	991.051	1538.3	0.6062
318.15 K, m1 = 0.01	991.257	1538.7	0.609
318.15 K, m1 = 0.014	991.671	1539.5	0.6161
318.15 K, m1 = 0.018	992.088	1540.4	0.6201
318.15 K, m1 = 0.022	992.491	1541.2	0.6245
318.15 K, m1 = 0.026	992.905	1541.9	0.6291
318.15 K, m1 = 0.03	993.313	1542.5	0.6328
